Values of other authors, collected in patent US20080132413A1, “Methods for the Improvement of Plant Tolerance Towards Glyphosate” (Bayer Cropscience AG, priority 2004, published 2008).

Tested on: glyphosate-resistant cotton (Roundup Ready Cotton)

O=[N+]([O-])/N=C1\NCCN1Cc1ccc(Cl)nc1 [imidacloprid]
increase in buds compared to a control not treated with imidacloprid (glyphosate treatment at the 4 leaf stage, after 45 days): 18% | sum of the counts of buds and bolls versus untreated control (glyphosate treatment at the 4 leaf stage, after 62 days): matched that of the untreated control | minus of buds compared to the control not treated with imidacloprid (glyphosate treatment at the 6 leaf stage, after 40 days): 14% | sum of the counts of buds and bolls (yield) greater than that of the untreated control (glyphosate treatment at the 6 leaf stage, after 57 days): about 14%
